Tests used:
[1] = Solubility of zileuton in solvents at 25° C.(RT); format: physicochemical
From the text: Furthermore, the suitability of other various solvents for solubilizing zileuton was screened. […] Especially, hydrophilics solvents such as alcohols may be preferably used.

[2] = system: atopic dermatitis symptoms; settings: clinical trials; oral administration; cited from earlier work
[3] = system: liver functions of the patient; settings: oral administration; cited from earlier work
[4] = Solution stability test of zileuton in solvents (TRS %); format: physicochemical; settings: for TRS increase rate %: Day 0 to Day 8
Protocol: In the solution stability test, suitability with solvents for solubilizing zileuton (ethanol, PEG400, propylene glycol, hexylene glycol, capryol 90, benzyl alcohol, water) was screened.
As a result, as illustrated in Tables 2 and 3 below, most of the solvents were suitable to zileuton under the 25° C. condition, but were unstable under the condition of 40° C. or 70° C.

[5] = system: Delayed Type Hypersensitivity Reaction in mouse induced by DNFB; assay: Mouse atopic dermatitis model, DNFB-induced ear inflammation; format: in vivo, BALB/c mouse; settings: ear tissues after day 5 stimulation
Protocol: According to an embodiment of the present invention, the medical effect of the cream type topical pharmaceutical composition has been verified in a Delayed Type Hypersensitivity Reaction in mouse induced by DNFB. The test article was applied to a mouse's skin 3 times a day, and then the medical effect was measured. Furthermore, an excess amount of the zileuton was injected using a non-optimized test vehicle, acetone.
For this purpose, BALB/c mice were divided into […], each consisting of 10 mice. The groups were divided into a vehicle (acetone), positive control group (dexamethasone 0.05 mg/ear; Dex), and zileuton groups ([…]). And the zileuton groups were divided into cases where acetone (1 mg/ear) and the cream formulation of […] (0.2 mg/ear and 0.02 mg/ear) were used, respectively.
Then, on day 5, 20 μl of 0.3% DNFB was applied once again to cause inflammation in the ears. Then, dexamethasone and zileuton dissolved in acetone vehicle were applied to the ears at 1 hour, 6 hours, and 23 hours after the stimulation on day 5. Thicknesses of the ears were measured at 24 hours after the stimulation on day 5, and then ear tissues were taken for histopathological observation.

[6] = system: inflammation reaction of asthma; settings: clinical trials; oral drug; cited from earlier work

CC(c1cc2ccccc2s1)N(O)C(N)=O (racemic) [Zileuton, (±)-1-(1-(benzo [b]thiophen-2-yl)ethyl)-1-hydroxyurea]
Zileuton Solubility at RT (% w/w) ([1]; in Caprylocaproyl Polyoxyl-8 Glycerides/Labrasol): 10.81-11.42 % w/w | Zileuton Solubility at RT (% w/w) ([1]; in Castor Oil): <0.16 % w/w | Zileuton Solubility at RT (% w/w) ([1]; in Cyclomethicone): <0.06 % w/w | Zileuton Solubility at RT (% w/w) ([1]; in Diethylene Glycol Monoethyl Ether/Transcutol P): 17.11-17.62 % w/w | Zileuton Solubility at RT (% w/w) ([1]; in Dimethicone): <0.06 % w/w | Zileuton Solubility at RT (% w/w) ([1]; in Isopropyl Myristate): <0.20 % w/w | Zileuton Solubility at RT (% w/w) ([1]; in Light Mineral Oil): <0.04 % w/w | Zileuton Solubility at RT (% w/w) ([1]; in Medium Chain Triglycerides): <0.21 % w/w | Zileuton Solubility at RT (% w/w) ([1]; in Olive Oil): <0.07 % w/w | Zileuton Solubility at RT (% w/w) ([1]; in Polyglyceryl-6 Dioleate): <0.06 % w/w | Zileuton Solubility at RT (% w/w) ([1]; in Polyglyceryl-10 Mono/Dioleate/Caprol PGE-860): <0.16 % w/w | Zileuton Solubility at RT (% w/w) ([1]; in Polyoxyethylene (20) Sorbitan Monolaurate/Tween 20): 8.42-9.24 % w/w | Zileuton Solubility at RT (% w/w) ([1]; in Polyoxyl 40 Hydrogenated Castor Oil/Kolliphor RH40): <0.37 % w/w | Zileuton Solubility at RT (% w/w) ([1]; in Propylene Glycol Dicaprylocaprate): <0.20 % w/w | Zileuton Solubility at RT (% w/w) ([1]; in Safflower Oil): <0.07 % w/w | Zileuton Solubility at RT (% w/w) ([1]; in Squalane): <0.04 % w/w | Zileuton Solubility at RT (% w/w) ([1]; in Triacetin): 0.50-0.72 % w/w | Effect on atopic dermatitis symptoms [2]: alleviates atopic dermatitis symptoms | Hepatotoxicity [3]: significant hepatotoxicity | TRS (%) ([4]; in Benzyl alcohol, 25° C., Day 0): 1.642% | TRS increase rate % ([4]; in Benzyl alcohol, 25° C.): 0.381% | TRS (%) ([4]; in Benzyl alcohol, 25° C., Day 1): 0.869% | TRS (%) ([4]; in Benzyl alcohol, 25° C., Day 3): 1.806% | TRS (%) ([4]; in Benzyl alcohol, 25° C., Day 8): 2.023% | TRS (%) ([4]; in Benzyl alcohol, 70° C., Day 0): 1.642% | TRS increase rate % ([4]; in Benzyl alcohol, 70° C.): 22.608% | TRS (%) ([4]; in Benzyl alcohol, 70° C., Day 1): 11.350% | TRS (%) ([4]; in Benzyl alcohol, 70° C., Day 3): 20.397% | TRS (%) ([4]; in Benzyl alcohol, 70° C., Day 8): 24.250% | TRS (%) ([4]; in Capryol 90, 25° C., Day 0): 1.623% | TRS increase rate % ([4]; in Capryol 90, 25° C.): 0.578% | TRS (%) ([4]; in Capryol 90, 25° C., Day 1): 1.444% | TRS (%) ([4]; in Capryol 90, 25° C., Day 3): 1.478% | TRS (%) ([4]; in Capryol 90, 25° C., Day 8): 2.201% | TRS (%) ([4]; in Capryol 90, 70° C., Day 0): 1.623% | TRS increase rate % ([4]; in Capryol 90, 70° C.): 74.822% | TRS (%) ([4]; in Capryol 90, 70° C., Day 1): 10.312% | TRS (%) ([4]; in Capryol 90, 70° C., Day 3): 39.603% | TRS (%) ([4]; in Capryol 90, 70° C., Day 8): 76.445% | TRS (%) ([4]; in Ethanol, 25° C., Day 0): 1.255% | TRS increase rate % ([4]; in Ethanol, 25° C.): 0.882% | TRS (%) ([4]; in Ethanol, 25° C., Day 1): 1.014% | TRS (%) ([4]; in Ethanol, 25° C., Day 3): 1.951% | TRS (%) ([4]; in Ethanol, 25° C., Day 8): 2.137% | TRS (%) ([4]; in Ethanol, 40° C., Day 0): 1.255% | TRS increase rate % ([4]; in Ethanol, 40° C.): 3.449% | TRS (%) ([4]; in Ethanol, 40° C., Day 1): 1.778% | TRS (%) ([4]; in Ethanol, 40° C., Day 3): 2.375% | TRS (%) ([4]; in Ethanol, 40° C., Day 8): 4.704% | TRS (%) ([4]; in Hexylene glycol, 25° C., Day 0): 1.505% | TRS increase rate % ([4]; in Hexylene glycol, 25° C.): 0.475% | TRS (%) ([4]; in Hexylene glycol, 25° C., Day 1): 1.448% | TRS (%) ([4]; in Hexylene glycol, 25° C., Day 3): 1.583% | TRS (%) ([4]; in Hexylene glycol, 25° C., Day 8): 1.980% | TRS (%) ([4]; in Hexylene glycol, 70° C., Day 0): 1.505% | TRS increase rate % ([4]; in Hexylene glycol, 70° C.): 58.847% | TRS (%) ([4]; in Hexylene glycol, 70° C., Day 1): 8.061% | TRS (%) ([4]; in Hexylene glycol, 70° C., Day 3): 29.999% | TRS (%) ([4]; in Hexylene glycol, 70° C., Day 8): 60.352% | TRS (%) ([4]; in Polyethylene glycol (PEG-400), 25° C., Day 0): 1.427% | TRS increase rate % ([4]; in Polyethylene glycol (PEG-400), 25° C.): 2.638% | TRS (%) ([4]; in Polyethylene glycol (PEG-400), 25° C., Day 1): 1.491% | TRS (%) ([4]; in Polyethylene glycol (PEG-400), 25° C., Day 3): 2.897% | TRS (%) ([4]; in Polyethylene glycol (PEG-400), 25° C., Day 8): 4.065% | TRS (%) ([4]; in Polyethylene glycol (PEG-400), 70° C., Day 0): 1.427% | TRS increase rate % ([4]; in Polyethylene glycol (PEG-400), 70° C.): 95.715% | TRS (%) ([4]; in Polyethylene glycol (PEG-400), 70° C., Day 1): 43.725% | TRS (%) ([4]; in Polyethylene glycol (PEG-400), 70° C., Day 3): 94.366% | TRS (%) ([4]; in Polyethylene glycol (PEG-400), 70° C., Day 8): 97.142% | TRS (%) ([4]; in Propylene glycol, 25° C., Day 0): 1.457% | TRS increase rate % ([4]; in Propylene glycol, 25° C.): 0.675% | TRS (%) ([4]; in Propylene glycol, 25° C., Day 1): 1.624% | TRS (%) ([4]; in Propylene glycol, 25° C., Day 3): 1.478% | TRS (%) ([4]; in Propylene glycol, 25° C., Day 8): 2.132% | TRS (%) ([4]; in Propylene glycol, 70° C., Day 0): 1.457% | TRS increase rate % ([4]; in Propylene glycol, 70° C.): 94.868% | TRS (%) ([4]; in Propylene glycol, 70° C., Day 1): 26.382% | TRS (%) ([4]; in Propylene glycol, 70° C., Day 3): 82.228% | TRS (%) ([4]; in Propylene glycol, 70° C., Day 8): 96.325% | TRS (%) ([4]; in Water, 25° C., Day 0): 1.424% | TRS increase rate % ([4]; in Water, 25° C.): 0.541% | TRS (%) ([4]; in Water, 25° C., Day 1): 1.879% | TRS (%) ([4]; in Water, 25° C., Day 3): 1.816% | TRS (%) ([4]; in Water, 25° C., Day 8): 1.965% | TRS (%) ([4]; in Water, 70° C., Day 0): 1.424% | TRS increase rate % ([4]; in Water, 70° C.): 90.570% | TRS (%) ([4]; in Water, 70° C., Day 1): 35.171% | TRS (%) ([4]; in Water, 70° C., Day 3): 80.268% | TRS (%) ([4]; in Water, 70° C., Day 8): 91.994% | Histopathological observation, anti-inflammation function [5]: excellent anti-inflammation function | Anti-inflammatory effect in asthma [6]: effective anti-inflammatory pharmaceutical effect

Reference: patent publication US9855243B2, “Topical anti-inflammatory pharmaceutical composition with zileuton cream formulation” (Qurient Co., Ltd., priority 2013, dated 2018)
